According to paper PMC5602538, “Assessment of the Drug Interaction Potential of Unconjugated and GalNAc3-Conjugated 2′-MOE-ASOs” (Molecular Therapy. Nucleic Acids, 2017):
{GalNAc3} = trishexylamino-C6 triantennary GalNAc conjugate; e = 2'-O-(2-methoxyethyl) (MOE); d = 2'-deoxy (DNA)

How the values were obtained:
BSEP = test system: T1, BSEP; experiment: BSEP inhibition study in Sf9 membrane vesicles; format: in vitro ADME; conditions: 100 μM ASO, 1 μM taurocholate
T1 construct: purchased Life Technologies; host or cells: Sf9 cells (membrane vesicles)
Protocol: The test system included a 96-well flat bottom plate containing a suspension of vesicles and a 96-well glass fiber filtration plate. Transport experiments were initiated with the addition of Mg-ATP (for ATP-dependent BSEP uptake) or AMP (non-ATP-dependent uptake) to appropriate wells. Preparation of the flat-bottom plates included incubation with blocking buffer for 60 min at 37°C with orbital shaking at 120 rpm. After 60 min, the blocking buffer was completely removed and assay uptake buffer solutions were added. For BSEP inhibition studies, solutions contained 1 μM [^3H]-taurocholic acid as a substrate and either assay vehicle, test article (at 100 μM), or reference inhibitor (300 μM rifampicin). For BSEP substrate studies, solutions contained either 1 μM [^3H]-taurocholic acid or 10 μM test article. […] These samples were counted using a 1450 Microbeta (Perkin-Elmer). […] The test article was quantitated by LC-MS.
Signal to noise for the BSEP probe substrate was calculated by dividing the uptake of the probe substrate in BSEP-expressing vesicles in the presence of ATP by the uptake of the BSEP substrate in the vesicles in the presence of AMP. Percent inhibition in the presence of the test article or the reference inhibitors was calculated as: %inhibition=100−(100×(ATP−dependent,transportor−mediatedaccumulation)withinhibitor/(ATP−dependent,transportor−mediatedaccumulation)withoutinhibitor).

CYP2C8 = molecular target: T2, CYP2C8 (Homo sapiens, UniProt P10632); conditions: hepatocytes
T2 sequence (P10632 1-490): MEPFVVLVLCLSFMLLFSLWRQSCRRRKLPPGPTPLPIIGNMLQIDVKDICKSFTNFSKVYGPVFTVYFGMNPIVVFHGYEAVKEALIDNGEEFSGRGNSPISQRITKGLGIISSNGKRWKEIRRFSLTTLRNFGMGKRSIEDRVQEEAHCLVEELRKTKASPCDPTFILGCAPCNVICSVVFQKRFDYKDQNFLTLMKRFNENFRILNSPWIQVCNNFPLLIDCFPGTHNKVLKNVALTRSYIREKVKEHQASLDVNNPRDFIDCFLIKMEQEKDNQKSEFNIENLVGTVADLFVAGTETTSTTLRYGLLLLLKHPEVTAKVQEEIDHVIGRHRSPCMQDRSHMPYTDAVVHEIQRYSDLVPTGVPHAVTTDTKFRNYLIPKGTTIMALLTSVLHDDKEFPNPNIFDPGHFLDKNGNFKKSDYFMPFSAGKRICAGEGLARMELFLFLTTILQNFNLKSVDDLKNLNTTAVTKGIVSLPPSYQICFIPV
Protocol: Preincubations were performed in 50 μL of Williams’ Medium E with 2 mM salicylamide. The salicylamide was included to reduce possible phase II conjugation to the precursor phase I metabolites. […] Human hepatocytes (pooled from 5 donors) were thawed and prepared according to the vendor’s protocol. […] Incubations were carried out at 37°C with 5% CO2. The incubation time was 45 min for phenacetin, diclofenac, dextromethorphan, midazolam, bupropion, chlorzoxazone, and testosterone and 90 min for paclitaxel and (S)-mephenytoin. The reactions were stopped by adding 200 μL of ice-cold acetonitrile (can) with tolbutamide (100 ng/mL) as the internal standard to 100 μL of hepatocyte suspension (1:2, v/v). The 96-well plate was then vortexed at 1,700 rpm for 3 min and centrifuged at 3,500 rpm for 10 min at 20°C. The supernatants were analyzed using liquid chromatography-tandem MS (LC-MS/MS).

CYP2B6 mRNA = CYP2B6 mRNA induction in plated human hepatocytes; conditions: ASO 100 μM, human hepatocytes 72 hr, vs PBS 1% vehicle, mean ± SD of triplicate
Protocol: (§1) Upon receipt, sandwich-cultured cryopreserved human hepatocytes (with Matrigel) plated on collagen-coated 24-well plates were inspected under a microscope for general morphology and viability. Fresh culture medium (OptiCulture Hepatocyte Media) was added to each plate that passed the visual inspection. The plates were then placed in an incubator set to 37°C with 5% carbon dioxide (CO2) for overnight acclimation. […] During this time, cells in parallel wells were also treated with 50.0 μM omeprazole (inducer of CYP1A2), 1,000 μM phenobarbital (inducer of CYP2B6), or 10.0 μM rifampicin (inducer of CYP3A4) in triplicate, respectively.
After collection of the supernatant for catalytic analysis, the remaining cells were washed and lysed with QIAGEN Buffer RLT from the QIAGEN RNeasy Kit. […]
The activity of each CYP enzyme was measured by comparing the peak area ratio of the corresponding product to the peak area ratio of the internal standard. The fold induction was calculated by dividing the peak area ratio of each individual well from the treatment group by the mean of the peak area ratios obtained from the vehicle control wells. […] The ΔCƬ was calculated as follows: ΔCƬ = CƬ (CYP) − CƬ (GAPDH). […] The ΔΔCƬ was calculated as follows: ΔΔCƬ = Δ CƬ (Treatment) − Δ CƬ (Vehicle). The fold induction of the target CYP was calculated using the following equation: Fold=2^-ΔΔCT.

CYP3A4 = conditions: ASO 100 μM, human hepatocytes 72 hr, vs PBS 1% vehicle, mean ± SD of triplicate
Protocol: as §1
The plates were then incubated at 37°C with 5% CO2 for 60 min. […] Aliquots of the supernatants were analyzed by LC-MS/MS for the formation of acetaminophen, hydroxyl-bupropion, or hydroxyl-midazolam as markers for enzyme activity of CYP1A2, CYP2B6, and CYP3A4, respectively.
The activity of each CYP enzyme was measured by comparing the peak area ratio of the corresponding product to the peak area ratio of the internal standard. The fold induction was calculated by dividing the peak area ratio of each individual well from the treatment group by the mean of the peak area ratios obtained from the vehicle control wells. […] The ΔCƬ was calculated as follows: ΔCƬ = CƬ (CYP) − CƬ (GAPDH). […] The ΔΔCƬ was calculated as follows: ΔΔCƬ = Δ CƬ (Treatment) − Δ CƬ (Vehicle). […]

Substance	Enhancement of probe substrate uptake, BSEP (BSEP)	IC50 (CYP2C8)	Fold induction of CYP2B6 mRNA (CYP2B6 mRNA)	Fold induction of CYP3A4 enzyme activity (CYP3A4)
ISIS 304801: 20-mer (5-10-5) 2′-MOE gapmer PS backbone antisense inhibitor of apoC-III, sequence AGCTTCTTGTCCAGCTTTAT (sugars from the 5' end e5 d10 e5, all phosphorothioate, methylation of C not given here)	21.0%	> 100 µM		
ISIS 420915: 20-mer 2′-MOE gapmer PS backbone antisense inhibitor of transthyretin, sequence TCTTGGTTACATGAAATCCC (all phosphorothioate, sugars by position and methylation of C not given here; 2'-MOE gapmer)		> 100 µM		
ISIS 681257: 20-mer 2′-MOE gapmer PS/PO mixed backbone ASO conjugated to 5′-trishexylamino GalNAc3, targets Lp(a), sequence TGCTCCGTTGGTGCTTGTTC (5' {GalNAc3}, sugars by position and backbone not given here; 2'-MOE gapmer with mixed PS/PO backbone)			1.36 ± 0.347 fold	1.67 ± 0.310 fold
